ChEMBL document CHEMBL5725310, “Substituted imidazo[1,5-α]pyridines and imidazo[1,5-α]pyrazines as LSD1 inhibitors” (2017)

Biological target: Lysine-specific histone demethylase 1A (Homo sapiens, UniProt O60341)
Test: Demethylase Biochemical Assay: LANCE LSD1/KDM1A demethylase assay¿10 uL of 1 nM LSD-1 enzyme (ENZO BML-SE544-0050) in the assay buffer (50 mM Tris, pH 7.5, 0.01% Tween-20, 25 mM NaCl, 5 mM DTT) were preincubated for 1 hour at 25° C. with 0.8 uL compound/DMSO dotted in black 384 well polystyrene plates. Reactions were started by addition of 10 uL of assay buffer containing 0.4 uM Biotin-labeled Histone H3 peptide substrate: ART-K(Me1)-QTARKSTGGKAPRKQLA-GGK(Biotin) SEQ ID NO:1 (AnaSpec 64355) and incubated for 1 hour at 25° C. Reactions were stopped by addition of 10 uL 1x LANCE Detection Buffer (PerkinElmer CR97-100) supplemented with 1.5 nM Eu-anti-unmodified H3K4 Antibody (PerkinElmer TRF0404), and 225 nM LANCE Ultra Streptavidin (PerkinElmer TRF102) along with 0.9 mM Tranylcypromine-HCl (Millipore 616431). After stopping the reactions plates were incubated for 30 minutes and read on a PHERAstar FS plate reader (BMG Labtech).

For `COC(=O)N(C)c1ccc(-c2c(-c3ccc(C#N)cc3)nc(N3CCC(N(C)C)CC3)c3cncn23)cn1`, the IC50 was < 50 nM.
For `COC(=O)N(C)c1ccc(-c2c(-c3ccc(C#N)cc3)nc(N3CCC(N(C)C)CC3)c3cncn23)cc1F`, the IC50 was < 50 nM.
`COC(=O)N(C)c1ccc(-c2c(-c3ccc(C#N)cc3)cc(OC[C@@H]3CCCN(C)C3)c3cncn23)cn1` was tested, and the IC50 was < 50 nM.
